Data on 14 molecules can be found in US10508109B2 (priority 2015, dated 2019).

Assay [1] has as its target SUV39H2 (Homo sapiens (Human), UniProt Q9H5I1). The settings on record: read-out: IC50 (μM) Suv 39H2 assay; enzyme assay.
The test system of assay [2] is HFL1. The assay can be described thus: Cell-based assay, anti-proliferative activity (Cell Counting Kit-8, 72 hours). The settings on record: Homo sapiens, read-out: IC50 (μM) HFL1. In short, it runs like this: (§1)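 Seed cells in 96-well plates; add serially diluted inhibitor (1.5625 to 100 micro-M plus vehicle); incubate 72 hours; quantify viable growth by CCK-8 and calculate IC50.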

The test system of assay [3] is PC14. Described as above. The settings on record: Homo sapiens, read-out: IC50 (μM) PC14. In short, it runs like this:
as §1

In assay [4] the test system is CCD-18Co. Described as above. As to conditions: Homo sapiens, read-out: IC50 (μM) CCD-18Co. In outline:
as §1

The test system of assay [5] is HCT-116. Described as above. The settings on record: Homo sapiens, read-out: IC50 (μM) HCT-116. In outline:
as §1

Assay [6] concerns A549. The assay is described as above. As to conditions: Homo sapiens, read-out: IC50 (μM) A549. In short, it runs like this:
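Seed cells in 96-well format; add inhibitors; measure growth by CCK-8 at end of exposure; derive IC50.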

Where [7] appears, read: HFL1 cells, Cell Counting Kit-8, 72 hours.
Setting [8] is: PC-14, PC14 cells, Cell Counting Kit-8, 72 hours.
[9] abbreviates: CCD-18Co cells, Cell Counting Kit-8, 72 hours.
The mark [10] stands for this setting: HCT-116 cells, Cell Counting Kit-8, 72 hours.
The mark [11] stands for this setting: A549 cells, Cell Counting Kit-8, 72 hours.

Where two headings read alike, the source gives them in different places.

SUV39H2, sequence (Q9H5I1 whole entry): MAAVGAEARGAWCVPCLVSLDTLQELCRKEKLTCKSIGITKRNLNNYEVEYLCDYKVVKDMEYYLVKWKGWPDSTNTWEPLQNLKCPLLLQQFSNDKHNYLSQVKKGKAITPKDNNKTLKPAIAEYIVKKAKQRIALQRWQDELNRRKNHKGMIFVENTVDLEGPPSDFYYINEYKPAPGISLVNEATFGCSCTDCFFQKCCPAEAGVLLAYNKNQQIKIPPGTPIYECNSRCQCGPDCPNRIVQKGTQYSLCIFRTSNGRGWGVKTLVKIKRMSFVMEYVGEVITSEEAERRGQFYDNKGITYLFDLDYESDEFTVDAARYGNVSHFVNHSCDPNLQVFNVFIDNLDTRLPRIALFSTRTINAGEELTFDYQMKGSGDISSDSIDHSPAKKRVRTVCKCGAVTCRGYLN

Take `COc1cc(OCCCN(C)C)c(-c2cn3ccc(N4CCN(C(=O)C(C)(C)C)CC4)cc3n2)cc1Cl` [Example 156, 1-(4-(2-(5-chloro-2-(3-(dimethylamino)propoxy)-4-methoxyphenyl)imidazo[1,2-a]pyridine-7-yl)piperazin-1-yl)-2,2-dimethylpropan-1-one]: the IC50 in assay [1] turned out to be 0.0344 µM; in assay [2] (setting [7]), 4.4 µM; in assay [3] (setting [8]), 5.8 µM; in assay [4] (setting [9]) it was 7.2 µM; in assay [5] (setting [10]), 6.2 µM; in assay [6] (setting [11]), 6.3 µM.

In the case of `COc1cc(OC)c(-c2cn3ccc(NC(=O)CCNC(=O)OC(C)(C)C)cc3n2)cc1Cl` [Example 157, tert-butyl (3-{[2-(5-chloro-2,4-dimethoxyphenyl)imidazo[1,2-a]pyridin-7-yl]amino}-3-oxopropyl)carbamate], the IC50 in assay [1] is 0.0628 µM; in assay [2] (setting [7]) it was 4.7 µM; in assay [3] (setting [8]), 6.2 µM; in assay [4] (setting [9]) it was 7.1 µM; in assay [5] (setting [10]) it was 6.8 µM; in assay [6] (setting [11]), 7.5 µM.

With `COc1cc(OC)c(-c2cn3ccc(N4CCN(CCC(=O)NCCN(C)C)CC4)cc3n2)cc1Cl` [Example 158, 3-(4-(2-(5-chloro-2,4-dimethoxyphenyl)imidazo[1,2-a]pyridin-7-yl)piperazin-1-yl)-N-(2-(dimethylamino)ethyl)propanamide], the concentration for half-maximal inhibition (IC50) in assay [1] was 0.00353 µM; in assay [2] (setting [7]), 7.7 µM; in assay [3] (setting [8]), 9.8 µM; in assay [4] (setting [9]), 14 µM; in assay [5] (setting [10]), 9.4 µM; in assay [6] (setting [11]), 9.3 µM.

Regarding `COC(=O)N1CCN(c2ccn3cc(-c4cc(Cl)c(OC)cc4OC)nc3n2)CC1` [Example 159, methyl 4-(2-(5-chloro-2,4-dimethoxyphenyl)imidazo[1,2-a]pyrimidin-7-yl)piperazine-1-carboxylate], the IC50 was found to be 0.0157 µM in assay [1]; 3.4 µM in assay [2] (setting [7]); 4.7 µM in assay [3] (setting [8]); 3.7 µM in assay [4] (setting [9]); 3.2 µM in assay [5] (setting [10]); 2.7 µM in assay [6] (setting [11]).

For the molecule `COc1cc(OCCCN(C)C)c(-c2cn3ccc(N4CCN(S(=O)(=O)C5CC5)CC4)cc3n2)cc1Cl` [Example 160, 3-(4-Chloro-2-{7-[4-(cyclopropylsulfonyl)piperazin-1-yl]imidazo[1,2-a]pyridin-2-yl}-5-methoxyphenoxy)-N,N-dimethylpropan-1-amine], the IC50 in assay [1] was 0.0277 µM; in assay [2] (setting [7]), 1.5 µM; in assay [3] (setting [8]), 1.9 µM; in assay [4] (setting [9]), 2.9 µM; in assay [5] (setting [10]), 1.2 µM; in assay [6] (setting [11]), 1.4 µM.

As to `COc1cc(OC)c(-c2cn3ccc(NC(=O)CNC(=O)OC(C)(C)C)cc3n2)cc1Cl` [Example 161, tert-butyl (2-((2-(5-chloro-2,4-dimethoxyphenyl)imidazo[1,2-a]pyridin-7-yl)-amino)-2-oxoethyl)carbamate], the 50% inhibitory concentration (IC50) in assay [1] amounted to 0.0379 µM; in assay [2] (setting [7]), 8.4 µM; in assay [3] (setting [8]), 8.7 µM; in assay [4] (setting [9]), 7.8 µM; in assay [5] (setting [10]) it was 7 µM; in assay [6] (setting [11]), 8.8 µM.

On to `COc1cc(OCCCN(C)C)c(-c2cn3ccc(N4CCC(NC(=O)C(C)(C)C)CC4)cc3n2)cc1Cl` [Example 162, N-(1-(2-(5-chloro-2-(3-(dimethylamino)propoxy)-4-methoxyphenyl)-imidazo[1,2-a]pyridin-7-yl)piperidin-4-yl)pivalamide], for which the IC50 in assay [1] is 0.0211 µM; in assay [2] (setting [7]) it was 2.1 µM; in assay [3] (setting [8]), 2.1 µM; in assay [4] (setting [9]), 5 µM; in assay [5] (setting [10]), 3.3 µM; in assay [6] (setting [11]), 2.8 µM.

For the molecule `COc1cc(OCCCN(C)C)c(-c2cn3ccc(N4CCC(NS(=O)(=O)C5CC5)CC4)cc3n2)cc1Cl` [Example 163, N-(1-(2-(5-chloro-2-(3-(dimethylamino)propoxy)-4-methoxyphenyl)imidazo-[1,2-a]pyridin-7-yl)piperidin-4-yl)cyclopropanesulfonamide], the IC50 in assay [1] was determined as 0.0206 µM; in assay [2] (setting [7]), 2.7 µM; in assay [3] (setting [8]) it was 3.4 µM; in assay [4] (setting [9]) it was 5.6 µM; in assay [5] (setting [10]) it was 5.9 µM; in assay [6] (setting [11]), 6.4 µM.

`COc1cc(OCCCN(C)C)c(-c2cn3ccc(N4CCC(NS(C)(=O)=O)CC4)cc3n2)cc1Cl` [Example 164, N-(1-(2-(5-chloro-2-(3-(dimethylamino)propoxy)-4-methoxyphenyl)-imidazo[1,2-a]pyridin-7-yl)piperidin-4-yl)methanesulfonamide]: the half-maximal inhibitory concentration (IC50) in assay [1] amounted to 0.0211 µM; in assay [2] (setting [7]) it was 8.6 µM; in assay [3] (setting [8]), 8.8 µM; in assay [4] (setting [9]), 7.2 µM; in assay [5] (setting [10]) it was 9 µM; in assay [6] (setting [11]), 10 µM.

In the case of `CCCCCNC1CCN(c2ccn3cc(-c4cc(Cl)c(OC)cc4OCCCN(C)C)nc3c2)CC1` [Example 165, 1-(2-{5-chloro-2-[3-(dimethylamino)propoxy]-4-methoxyphenyl}imidazo-[1,2-a]pyridin-7-yl)-N-pentylpiperidin-4-amine], the IC50 turned out to be 0.0593 µM in assay [1]; 1.7 µM in assay [2] (setting [7]); 2.2 µM in assay [3] (setting [8]); 2.1 µM in assay [4] (setting [9]); 1.7 µM in assay [5] (setting [10]); 2.2 µM in assay [6] (setting [11]).

On to `COc1cc(OC)c(-c2cn3ccc(NC(=O)CN)cc3n2)cc1Cl` [Example 166, 2-amino-N-(2-(5-chloro-2,4-dimethoxyphenyl)imidazo[1,2-a]pyridin-7-yl)-acetamide], for which the IC50 worked out at 0.031 µM in assay [1]; 22 µM in assay [2] (HFL1, 72 h); 6.5 µM in assay [3] (PC-14, 72 h); 7.9 µM in assay [4] (CCD-18Co, 72 h); 6.1 µM in assay [5] (HCT-116, 72 h); 7.1 µM in assay [6] (A549, 72 h).

Take `COc1cc(OC)c(-c2cn3ccc(N4CCN(CCCN(C)C)C4=O)cc3n2)cc1Cl` [Example 167, 1-(2-(5-chloro-2,4-dimethoxyphenyl)imidazo[1,2-a]pyridin-7-yl)-3-(3-(dimethylamino)propyl)imidazolidin-2-one]: the IC50 came to 0.0124 µM in assay [1]; 6.5 µM in assay [2] (setting [7]); 3.9 µM in assay [3] (setting [8]); 6.9 µM in assay [4] (setting [9]); 6.8 µM in assay [5] (setting [10]); 6.4 µM in assay [6] (setting [11]).

Consider `COc1cc(OC)c(-c2cn3ccc(NC(=O)CCN)cc3n2)cc1Cl` [Example 168, 3-amino-N-[2-(5-chloro-2,4-dimethoxyphenyl)imidazo[1,2-a]pyridin-7-yl]-propanamide], for which the half-inhibitory concentration (IC50) in assay [1] worked out at 0.0283 µM; in assay [2] (setting [7]), 2.7 µM; in assay [3] (setting [8]) it was 6.2 µM; in assay [4] (setting [9]), 9.5 µM; in assay [5] (setting [10]), 1.4 µM; in assay [6] (setting [11]), 39 µM.

As for `COc1cc(OC)c(-c2cn3ccc(N4CCN(S(C)(=O)=O)CC4)cc3n2)cc1Cl` [Example 169, 2-(5-chloro-2,4-dimethoxyphenyl)-7-[4-(methylsulfonyl)piperazin-1-yl]imidazo[1,2-a]pyridine], the concentration for half-maximal inhibition (IC50) in assay [1] came to 0.0101 µM; in assay [2] (setting [7]), 4.7 µM; in assay [3] (setting [8]) it was 2.2 µM; in assay [4] (setting [9]), 2.8 µM; in assay [5] (setting [10]) it was 2.1 µM; in assay [6] (setting [11]) it was 1.8 µM.
